This note sets out measurements from ChEMBL document CHEMBL1122770, “Quantitative structure-activity relationship of insect juvenile hormone mimetic compounds” (J Med Chem, 1984).

Broadly, the logP is the decadic logarithm of the partition coefficient of the neutral form, usually between octanol and water.

Data set [1] is described as follows: Partition coefficient (logP). Format: physicochemical. Particulars: octanol/water; read-out: logP.
Data set [2] relates to Tenebrio molitor. The experiment in a line: Tested for juvenile hormone mimetic activity in Tenebrio molitor (yellow mealworm) excluding from the analysis for activity against […]). Format: functional.
Data set [3] relates to Tenebrio molitor. Nature of the data set: Tested for juvenile hormone mimetic activity in Tenebrio molitor (yellow mealworm) excluding from the analysis for activity against Tenebrio molitor. Format: functional. Details: unit not given here.
The test system of data set [4] is Tenebrio molitor. The experiment in a line: Tested for juvenile hormone mimetic activity in Tenebrio molitor (yellow mealworm) excluding from the analysis for activity against Anopheles aegypti. Format: functional.
The subject of data set [5] is Tenebrio molitor. The experiment in a line: Tested for juvenile hormone mimetic activity in Tenebrio molitor (yellow mealworm) excluding from the analysis for activity against Aedes aegypti, Tenebrio molitor.
The test system of data set [6] is Tenebrio molitor. Nature of the data set: Juvenile hormone mimetic activity in Tenebrio molitor (yellow mealworm). The format is functional. Details: unit not given here.

Take `CCOC(=O)/C=C(C)/C=C/CC(C)CCCC(C)(C)O` (stereo not drawn): the logP in data set [1] amounted to 4.65. The same compound displayed a pI50 in data set [2] of about 0.54 uM pupa-1. Compound `CCOC(=O)/C=C(C)/C=C/CC(C)CCC(=O)C(C)C` (stereo not drawn) returned a pI50 in data set [3] of under 0.45. Also, the logP in data set [1] was determined as 4.3.

With `CCC(=O)/C=C(C)/C=C/CC(C)CCCC(C)(C)O` (stereo not drawn), in data set [3], the pI50 amounted to 6.04. Moreover, the logP in data set [1] worked out at 4.18. In data set [4], `CCNC(=O)/C=C(C)/C=C/CC(C)CCCC(C)(C)O` (stereo not drawn) gave a pI50 of 5.22 uM pupa-1. In data set [1], the logP is 3.15. For the compound `CC(/C=C/CC(C)CCCC(C)C)=C\C(=O)OC(C)(C)C` (stereo not drawn), the logP in data set [1] was 7.56. For the same compound, the pI50 in data set [5] was 1.01 uM pupa-1. In the case of `CC(/C=C/CC(C)CCCC(C)C)=C\C(=O)OCc1ccccc1` (stereo not drawn), in data set [3], the pI50 is under 0.52. The logP in data set [1] was 7.87.

`C#CCCOC(=O)/C=C(C)/C=C/CC(C)CCCC(C)(C)OC` (stereo not drawn) returned a pI50 in data set [3] of under 1.11. Further, the logP in data set [1] was determined as 5.2. In data set [5], `COC(C)(C)CCCC(C)C/C=C/C(C)=C/C(=O)C1N=N1` (stereo not drawn) displayed a pI50 of 6.12 uM pupa-1. `CCNC(=O)OC(C)(C)CCCC(C)C/C=C/C(C)=C/C(=O)OCC` (stereo not drawn): in data set [3], the pI50 was under 0.55. The logP in data set [1] was 5.65. For the compound `CC(/C=C/CC(C)CCCC(C)C)=C\C(=O)C1N=N1` (stereo not drawn), in data set [5], the pI50 amounted to 5.15 uM pupa-1. With `CCOC(=O)/C=C(C)/C=C/CC(C)CCC(SCC)C(C)C` (stereo not drawn), in data set [3], the pI50 is given as 1.51. For the same compound, the logP in data set [1] amounted to 6.9. As for `CCOC(=O)/C=C(C)/C=C/CC(C)CCC(OC)C(C)(C)OC` (stereo not drawn), the pI50 in data set [6] came to 1.31. Moreover, the logP in data set [1] came out at 4.34. In the same order, the values of `CC(/C=C/CC(C)CCCC(C)C)=C\C(=O)N(C)C` (stereo not drawn) are 3.7 and 4.94. Turning to `CC(/C=C/CC(C)CCCC(C)C)=C\C(=O)O` (stereo not drawn), the pI50 in data set [3] is given as under 0.45. In addition, the logP in data set [1] was found to be 5.95. The compound `COC(C)(C)CCCC(C)C/C=C/C(C)=C/C(=O)OC1CC1` (stereo not drawn) gave a pI50 in data set [6] of 2.89. Moreover, the logP in data set [1] amounted to 5.71. As for `CCOC(=O)/C=C(C)/C=C/CC(C)CCC(O)C(C)C` (stereo not drawn), the pI50 in data set [3] is on record as under 0.45. In addition, the logP in data set [1] was 4.65. Consider `CC(/C=C/CC(C)CCCC(C)C)=C\C(=O)CC(C)C` (stereo not drawn), for which the pI50 in data set [6] came to 3.14. Further, the logP in data set [1] is 7.22. In the same order, the values of `CSC(C)(C)CCCC(C)C/C=C/C(C)=C/C(=O)OC(C)C` (stereo not drawn) are 3.77 and 6.77. For `CCC(=O)/C=C(C)/C=C/CC(C)CCCC(C)(C)OC` (stereo not drawn), in that order: 5.78 and 5.07.

`CCOC(=O)/C=C(C)/C=C/CC(C)CCCC(C)(C)OCC` (stereo not drawn): the pI50 in data set [6] worked out at 2.77. For the same compound, the logP in data set [1] came to 6.08. In the same order, the values of `CCOC(C)(C)CCCC(C)C/C=C/C(C)=C/C(=O)OC(C)C` (stereo not drawn) are 4.51 and 6.49. In the same order, the values of `CCCCOC(=O)/C=C(C)/C=C/CC(C)CCCC(C)(C)OC` (stereo not drawn) are 0.93 and 6.62. In the same order, the values of `COC(C)(C)CCCC(C)C/C=C/C(C)=C/C(=O)N(C)C` (stereo not drawn) are 3.8 and 3.74. In the case of `COC(C)(C)CCCC(C)C/C=C/C(C)=C/C(=O)NC(C)C` (stereo not drawn), the pI50 in data set [6] turned out to be 4.21. For the same compound, in data set [1], the logP worked out at 4.45. Compound `CCNC(=O)/C=C(C)/C=C/CC(C)CCCC(C)(C)OC` (stereo not drawn) displayed a pI50 in data set [3] of 5.95. Also, in data set [1], the logP was determined as 4.04.
